Tests used:
BLEC monolayer = assay: Effect of cytokines on BLEC monolayer permeability to lucifer yellow (PeLY); type: cell-based, human; details: for increase in transcellular passage of LY through BLEC monolayer compared to control / increase in paracellular passage of LY through BLEC monolayer compared to control: 10 ng·mL^−1, 24 h; for increase in transcellular passage of LY through BLEC monolayer compared to control: PeLY 37 °C minus PeLY 4 °C; for increase in paracellular passage of LY through BLEC monolayer compared to control: PeLY at 4 °C; for PeLY of BLECs after cytokine treatment: 10 ng·mL^−1 basolateral, 24 h, LY 50 µM apical-to-basolateral, RH buffer, 37 °C, 60 min, untreated 0.54 ± 0.03, mean ± SEM
Experimental: Next, we examined the effect of TNF-α and IL-1β on BBB permeability. The physical integrity of the BLECs was monitored by measuring the rate of passage of the small hydrophilic marker lucifer yellow (LY; ~400 Da) from the upper to the lower compartment to calculate the endothelial permeability coefficient of LY (PeLY).
To discriminate the impact of TNF-α and IL-1β on these different pathways and based on our previous PeLY results obtained at 37 °C informing on the global crossing of PeLY (paracellular and transcellular), a PeLY experiment was also performed at 4 °C. […] Thus, inhibition of the transcellular transport allows us to observe only the modification on the paracellular permeability. Then, the transcellular transport of LY, corresponding to the difference between global PeLY and PeLY at 4 °C, was determined.
(§1) Each condition was studied in triplicate.
The BLEC monolayer integrity was evaluated after each treatment using the method described by Dehouck and colleagues. The endothelial permeability coefficient (Pe) was evaluated regarding the apical-to-basolateral transport of the LY integrity marker used at a final concentration of 50 µM in RH buffer at 37 °C. Briefly, the inserts containing BLECs were transferred to a new 12-well plate containing warm RH buffer (corresponding to the basolateral compartment), and then a volume of 500 µL of warm RH with 50 µM of LY buffer was added to the apical compartment. The inserts containing the BLECs and RH buffer with 50 µM of LY were then transferred to a new well containing warm RH every 20 min for 1 hour. […] For each condition, coculturing was performed in triplicate. To determine the PeLY values for BLECs, the slope of the clearance curves (PS = permeability × surface area product; in µL·min^−1) corresponding to the volume cleared from the apical to the basolateral compartment (in µL) for 60 min was calculated for the filters with only Matrigel coating and for those with Matrigel coating and BLECs, denoted PSf and PSt, respectively. From these values, the PS values for BLECs (PSe) were determined according to the formula “[…]”. Then, the PeLY values for BLECs (in cm·min^−1) were obtained by the calculation “PeLY = PSe/S”, with PSe in cm^3·min^−1 and S being the filter surface area (= 1.12 cm^2). The same experiment was also performed at 4 °C to block the transcellular permeability of LY and to identify only the paracellular permeability of LY. Following these experiments, the transcellular permeability can be deduced, which corresponds to the PeLY values at 37 °C subtracted by those of PeLY at 4 °C. The mass balance (in %) was determined from the amount of LY in the apical and basolateral compartment at the end of the experiment divided by the total amount initially added in the apical compartment at time zero. To be taken into consideration for the Pe determination, the mass balance should be between 80% and 120%.

BLECs = assay: Effect of cytokines on Aβ1–40Cy5 transcytosis quotient across BLECs; type: cell-based, human; details: cytokine 10 ng·mL^−1 basolateral, 24 h; then 30 min transport at 37 °C; compared to control
Experimental: As TNF-α and IL-1β modulated the protein expression levels of LRP1, BCRP and PICALM (Figure 4), we investigated the effect of these cytokines on the transport of Aβ peptide across the BBB. After 24 h of treatment with proinflammatory cytokines, the apical-to-basolateral (influx) and basolateral-to-apical (efflux) Aβ1–40Cy5 peptide transports across the BLECs were assessed in the presence of FITC-inulin. The Aβ1–40 peptide was used in all experiments, as it is the most abundant amyloid peptide found on cerebral blood vessels. FITC-inulin was used to determine the nonspecific transcytosis quotient (Figure 5A). Indeed, unlike Aβ peptide, FITC-inulin is not actively cleared at the BBB and acts as a reference marker of paracellular permeability, thus as previously reported.
as §1
After proinflammatory cytokine treatments, the influx (apical-to-basolateral) and the efflux (basolateral-to-apical) transport of Aβ1–40 peptides across BLECs were investigated as previously described. Briefly, for influx studies, inserts with BLECs were transferred to new 12-well plates containing 1.5 mL of RH–HSA 0.1% (the receiver solution) per well. In the insert, 0.5 mL of RH-HSA 0.1% supplemented with 10 nM Aβ1–40Cy5 peptide were added (the donor solution). For efflux studies, inserts with BLECs were transferred to new 12-well plates, this time containing 1.5 mL of RH-has 0.1% with 10 nM fluorescent Aβ1–40Cy5 (the donor solution) peptide, then 0.5 mL of RH-HSA 0.1% (the receiver solution) was added in the insert. […] The BBB integrity was determined by measuring the endothelial permeability of a radioactive integrity marker, ^14C-sucrose, using the same method of calculation as described in Section 4.4. […] At the end of the experiment, aliquots of the receiver and donor solutions were collected, and the fluorescence compounds (Aβ1–40Cy5 peptide and FITC-inulin) were quantified with a spectrofluorimeter (Synergy H1, Biotek, Colmar, France). The radioactivity of ^14C-saccharose was measured using a scintillation counter (Hidex 300 SL, Hidex, Turku, Finland). The apparent permeability coefficients (cm.sec^−1) of Aβ1–40Cy5 peptide and FITC-inulin were calculated as previously described. Once influx and efflux Papp were determined for each molecule, the specific transport of Aβ1–40Cy5 across the BLECs in influx and efflux directions were identified by calculating the transcytosis quotient of Aβ1–40Cy5 using the following formulas: “influx transcytosis quotient of Aβ1–40Cy5 = (influx Aβ1–40Cy5 Papp)/(influx FITC-inulin Papp)” or “efflux transcytosis quotient of Aβ1–40Cy5 = (efflux Aβ1–40Cy5 Papp)/(efflux FITC-inulin Papp)”. For each filter, the mass balance was determined as described in Section 4.4. […]

Substance | increase in transcellular passage of LY through BLEC monolayer compared to control (BLEC monolayer) | increase in paracellular passage of LY through BLEC monolayer compared to control (BLEC monolayer) | PeLY of BLECs after cytokine treatment (BLEC monolayer) | greater increase in paracellular passage of LY with TNF-α compared to IL-1β treatment (BLEC monolayer; both 10 ng·mL^−1, 24 h) | apical-to-basolateral transcytosis quotient (specific influx) of Aβ1–40Cy5 peptide (BLECs) | reduction of basolateral-to-apical transcytosis quotient (specific efflux) of Aβ1–40Cy5 peptide (BLECs) | greater increase in transcellular passage of LY with IL-1β compared to TNF-α treatment (BLEC monolayer; both 10 ng·mL^−1, 24 h)
tumor necrosis factor-α [TNF-α] | 40.1% | 175.2% | 1.00 ± 0.03 × 10^−3 cm·min^−1 | 133.9% | not modified | 26.9% | 
interleukin-1β [IL-1β] | 94.2% | 41.3% | 0.95 ± 0.05 × 10^−3 cm·min^−1 |  | not modified | 25.9% | 54.2%

— article PMC9499506, “TNF-α and IL-1β Modulate Blood-Brain Barrier Permeability and Decrease Amyloid-β Peptide Efflux in a Human Blood-Brain Barrier Model” (International Journal of Molecular Sciences, 2022)
